# How the values were obtained:
# [1] = Selectivity index, ratio of EC50 for human HepG2 cells to EC50 for Plasmodium falciparum 3D7 asexual blood stage infected in human erythrocytes; type: toxicity, cell-based; settings: read-out: Ratio EC50
# Plasmodium falciparum [2] = assay: Antimalarial activity against Plasmodium falciparum 3D7 asexual blood stage infected in human erythrocytes incubated for 72 hrs by LDH assay; type: functional, cell-based; settings: 3D7, 72 h
# Plasmodium falciparum [3] = assay: Antimalarial activity against chloroquine and mefloquine resistant Plasmodium falciparum W2mef infected in human erythrocytes incubated for 72 hrs by LDH assay; type: functional, cell-based
# HepG2 = assay: Cytotoxicity against human HepG2 cells assessed as growth inhibition after 48 hrs by Cell Titer-Glo assay; type: cell-based; settings: HepG2, 48 h
# [4] = Intrinsic clearance in mouse liver microsomes at 1 uM in presence of NADPH by LC-MS method; type: ADME, microsome; settings: read-out: CLH
# [5] = Aqueous solubility of the compound at pH 2 by nephelometry; type: physicochemical
# [6] = Half life in mouse liver microsomes at 1 uM in presence of NADPH by LC-MS method; type: ADME, microsome
# [7] = Half life in human liver microsomes at 1 uM in presence of NADPH by LC-MS method; type: ADME, microsome
# [8] = Hepatic extraction ratio in mouse liver microsomes at 1 uM in presence of NADPH by LC-MS method; type: ADME, microsome; settings: read-out: ERH
# [9] = Aqueous solubility of the compound at pH 6.5 by nephelometry; type: physicochemical
# [10] = Intrinsic clearance in human liver microsomes at 1 uM in presence of NADPH by LC-MS method; type: ADME, microsome; settings: read-out: CLH
# [11] = Hepatic extraction ratio in human liver microsomes at 1 uM in presence of NADPH by LC-MS method; type: ADME, microsome; settings: read-out: ERH
# Plasmodium falciparum [12] = assay: Antimalarial activity against synchronous culture of Plasmodium falciparum 3D7 ring stage parasite infected in human erythrocytes incubated for 3 hrs followed by compound wash out and measured after 24 hrs by NanoGlo-reagent based bioluminescence assay; type: functional, cell-based
# Plasmodium falciparum [13] = assay: Antimalarial activity against synchronous culture of Plasmodium falciparum 3D7 ring stage parasite infected in human erythrocytes incubated for 24 hrs followed by compound wash out and measured after 24 hrs by NanoGlo-reagent based bioluminescence assay; type: functional, cell-based; settings: 3D7, 24 h
# Plasmodium falciparum [14] = assay: Antimalarial activity against Plasmodium falciparum NF54 harboring pfs16-LUC-GFP ring stage gametocytes after 24 hrs by MitoTracker Red staining based confocal microscopy; type: functional; settings: NF54, 24 h
# Plasmodium falciparum [15] = assay: Antimalarial activity against synchronous culture of Plasmodium falciparum 3D7 ring stage parasite infected in human erythrocytes incubated for 6 hrs followed by compound wash out and measured after 24 hrs by NanoGlo-reagent based bioluminescence assay; type: functional, cell-based
# Plasmodium falciparum [16] = assay: Antimalarial activity against Plasmodium falciparum NF54 harboring pfs16-LUC-GFP late stage 4 to 5 gametocytes after 48 hrs by MitoTracker Red staining based confocal microscopy; type: functional; settings: NF54, 48 h
# Liver [17] = assay: Drug metabolism in human liver microsomes assessed as O-demethylation of 6 and 7 methoxy groups at 1 uM after 60 mins in presence of NADPH by LC-MS method; type: ADME, microsome; settings: 1 h
# Liver [18] = assay: Drug metabolism in mouse liver microsomes assessed as O-demethylation of 6 and 7 methoxy groups at 1 uM after 60 mins in presence of NADPH by LC-MS method; type: ADME, microsome; settings: 1 h
# Plasmodium falciparum [19] = assay: Antimalarial activity against Plasmodium falciparum NF54 harboring pfs16-LUC-GFP early stage 1 to 3 gametocytes after 48 hrs by MitoTracker Red staining based confocal microscopy; type: functional; settings: NF54, 48 h
smiles,measurement,setting,value
Fc1cc(Nc2nc(NCc3ccccc3)c3ccccc3n2)ccc1Cl,selectivity ratio,[1],55
same,EC50,Plasmodium falciparum [2],121 nM
same,EC50,Plasmodium falciparum [3],75 nM
same,EC50,HepG2,6600 nM
COc1ccc(Nc2nc(NCc3ccccc3)c3ccccc3n2)cc1,microsomal CLint at 1 µM,[4],123 µL/min/mg
same,solubility kinetic,[5],25 to 50 µM
same,selectivity ratio,[1],32
same,half-life at 1 µM,[6],14 min
same,half-life at 1 µM,[7],65 min
same,hepatic extraction ratio at 1 µM,[8],0.73
same,EC50,Plasmodium falciparum [2],264 nM
same,solubility kinetic,[9],1.6 to 3.1 µM
same,microsomal CLint at 1 µM,[10],27 µL/min/mg
same,hepatic extraction ratio at 1 µM,[11],0.51
same,EC50,HepG2,8500 nM
CCN(CC)CCCC(C)Nc1ccnc2cc(Cl)ccc12 (stereo unspecified) [CHLOROQUINE],EC50,Plasmodium falciparum [12],608 nM
same,EC50,Plasmodium falciparum [13],286 nM
same,EC50,Plasmodium falciparum [14],20 nM
same,EC50,Plasmodium falciparum [2],23 nM
same,EC50,Plasmodium falciparum [15],643 nM
same,EC50,Plasmodium falciparum [16],> 40000 nM
C[C@@H]1CC[C@H]2[C@@H](C)C(=O)O[C@@H]3O[C@@]4(C)CC[C@@H]1[C@]32OO4 [ARTEMISININ],EC50,Plasmodium falciparum [13],2 nM
same,EC50,Plasmodium falciparum [15],5 nM
COc1cc2nc(Nc3ccc(F)cc3)nc(NCC3CCCO3)c2cc1OC (stereo unspecified),microsomal CLint at 1 µM,[4],72 µL/min/mg
same,solubility kinetic,[5],25 to 50 µM
same,Drug metabolism,Liver [17],Metabolite_Detected
same,selectivity ratio,[1],96
same,Drug metabolism,Liver [18],Metabolite_Detected
same,half-life at 1 µM,[6],24 min
same,half-life at 1 µM,[7],64 min
same,hepatic extraction ratio at 1 µM,[8],0.61
same,EC50,Plasmodium falciparum [2],57 nM
same,solubility kinetic,[9],3.1 to 6.3 µM
same,microsomal CLint at 1 µM,[10],27 µL/min/mg
same,hepatic extraction ratio at 1 µM,[11],0.52
same,EC50,HepG2,5500 nM
CN1CCN(CCNc2nc(Nc3ccc(F)cc3)nc3ccccc23)CC1,selectivity ratio,[1],362
same,EC50,Plasmodium falciparum [2],42 nM
same,EC50,Plasmodium falciparum [3],122 nM
same,EC50,HepG2,15300 nM
C[C@H]1[C@H](OC(=O)CCC(=O)O)O[C@@H]2O[C@@]3(C)CC[C@H]4[C@H](C)CC[C@@H]1[C@@]24OO3 [ARTESUNATE],EC50,Plasmodium falciparum [19],3 nM
same,EC50,Plasmodium falciparum [14],3 nM
same,EC50,Plasmodium falciparum [2],8 nM
same,EC50,Plasmodium falciparum [3],6 nM
same,EC50,Plasmodium falciparum [16],8 nM
Fc1ccc(Nc2nc(NCc3ccccc3)c3ccccc3n2)cc1Cl,selectivity ratio,[1],114
same,EC50,Plasmodium falciparum [2],56 nM
same,EC50,Plasmodium falciparum [3],80 nM
same,EC50,HepG2,6300 nM
COc1ccc2nc3cc(Cl)ccc3c(Nc3cc(CN4CCCC4)c(O)c(CN4CCCC4)c3)c2n1 [PYRONARIDINE],EC50,Plasmodium falciparum [19],25 nM
same,EC50,Plasmodium falciparum [14],16 nM
same,EC50,Plasmodium falciparum [16],1400 nM
CN1CCC(Nc2nc(Nc3ccc(F)cc3)nc3ccccc23)CC1,selectivity ratio,[1],227
same,EC50,Plasmodium falciparum [2],51 nM
same,EC50,HepG2,11500 nM
CN1CCN(CCNc2nc(Nc3ccc(Cl)c(F)c3)nc3cccnc23)CC1,selectivity ratio,[1],96
same,EC50,Plasmodium falciparum [2],128 nM
same,EC50,HepG2,12300 nM
Clc1cccc(Nc2nc(NCc3ccco3)c3ccccc3n2)c1,selectivity ratio,[1],37
same,EC50,Plasmodium falciparum [2],134 nM
same,EC50,HepG2,5000 nM
